Entries after “also recorded” stand apart in the source; their conditions may differ. Where a name gives a salt, the structure may show the parent alone.
Legend:
ATR [1] = molecular target: T1, ATR (Mus musculus, UniProt Q9JKK8); conditions: 3T3TopBP1-ER cells; cited from earlier work
T1 construct: endogenous in cells; host or cells: 3T3TopBP1-ER cells

JNK [2] = molecular target: T2, JNK; conditions: cited from earlier work
T2 construct: IC50; Ki

JNK [3] = conditions: cited from earlier work
ATR [4] = molecular target: ATR (Homo sapiens, UniProt Q13535); conditions: cited from earlier work
ATM kinase = ATM kinase (Homo sapiens, UniProt Q13315); conditions: cited from earlier work
Chain of ATM kinase (Q13315 whole entry): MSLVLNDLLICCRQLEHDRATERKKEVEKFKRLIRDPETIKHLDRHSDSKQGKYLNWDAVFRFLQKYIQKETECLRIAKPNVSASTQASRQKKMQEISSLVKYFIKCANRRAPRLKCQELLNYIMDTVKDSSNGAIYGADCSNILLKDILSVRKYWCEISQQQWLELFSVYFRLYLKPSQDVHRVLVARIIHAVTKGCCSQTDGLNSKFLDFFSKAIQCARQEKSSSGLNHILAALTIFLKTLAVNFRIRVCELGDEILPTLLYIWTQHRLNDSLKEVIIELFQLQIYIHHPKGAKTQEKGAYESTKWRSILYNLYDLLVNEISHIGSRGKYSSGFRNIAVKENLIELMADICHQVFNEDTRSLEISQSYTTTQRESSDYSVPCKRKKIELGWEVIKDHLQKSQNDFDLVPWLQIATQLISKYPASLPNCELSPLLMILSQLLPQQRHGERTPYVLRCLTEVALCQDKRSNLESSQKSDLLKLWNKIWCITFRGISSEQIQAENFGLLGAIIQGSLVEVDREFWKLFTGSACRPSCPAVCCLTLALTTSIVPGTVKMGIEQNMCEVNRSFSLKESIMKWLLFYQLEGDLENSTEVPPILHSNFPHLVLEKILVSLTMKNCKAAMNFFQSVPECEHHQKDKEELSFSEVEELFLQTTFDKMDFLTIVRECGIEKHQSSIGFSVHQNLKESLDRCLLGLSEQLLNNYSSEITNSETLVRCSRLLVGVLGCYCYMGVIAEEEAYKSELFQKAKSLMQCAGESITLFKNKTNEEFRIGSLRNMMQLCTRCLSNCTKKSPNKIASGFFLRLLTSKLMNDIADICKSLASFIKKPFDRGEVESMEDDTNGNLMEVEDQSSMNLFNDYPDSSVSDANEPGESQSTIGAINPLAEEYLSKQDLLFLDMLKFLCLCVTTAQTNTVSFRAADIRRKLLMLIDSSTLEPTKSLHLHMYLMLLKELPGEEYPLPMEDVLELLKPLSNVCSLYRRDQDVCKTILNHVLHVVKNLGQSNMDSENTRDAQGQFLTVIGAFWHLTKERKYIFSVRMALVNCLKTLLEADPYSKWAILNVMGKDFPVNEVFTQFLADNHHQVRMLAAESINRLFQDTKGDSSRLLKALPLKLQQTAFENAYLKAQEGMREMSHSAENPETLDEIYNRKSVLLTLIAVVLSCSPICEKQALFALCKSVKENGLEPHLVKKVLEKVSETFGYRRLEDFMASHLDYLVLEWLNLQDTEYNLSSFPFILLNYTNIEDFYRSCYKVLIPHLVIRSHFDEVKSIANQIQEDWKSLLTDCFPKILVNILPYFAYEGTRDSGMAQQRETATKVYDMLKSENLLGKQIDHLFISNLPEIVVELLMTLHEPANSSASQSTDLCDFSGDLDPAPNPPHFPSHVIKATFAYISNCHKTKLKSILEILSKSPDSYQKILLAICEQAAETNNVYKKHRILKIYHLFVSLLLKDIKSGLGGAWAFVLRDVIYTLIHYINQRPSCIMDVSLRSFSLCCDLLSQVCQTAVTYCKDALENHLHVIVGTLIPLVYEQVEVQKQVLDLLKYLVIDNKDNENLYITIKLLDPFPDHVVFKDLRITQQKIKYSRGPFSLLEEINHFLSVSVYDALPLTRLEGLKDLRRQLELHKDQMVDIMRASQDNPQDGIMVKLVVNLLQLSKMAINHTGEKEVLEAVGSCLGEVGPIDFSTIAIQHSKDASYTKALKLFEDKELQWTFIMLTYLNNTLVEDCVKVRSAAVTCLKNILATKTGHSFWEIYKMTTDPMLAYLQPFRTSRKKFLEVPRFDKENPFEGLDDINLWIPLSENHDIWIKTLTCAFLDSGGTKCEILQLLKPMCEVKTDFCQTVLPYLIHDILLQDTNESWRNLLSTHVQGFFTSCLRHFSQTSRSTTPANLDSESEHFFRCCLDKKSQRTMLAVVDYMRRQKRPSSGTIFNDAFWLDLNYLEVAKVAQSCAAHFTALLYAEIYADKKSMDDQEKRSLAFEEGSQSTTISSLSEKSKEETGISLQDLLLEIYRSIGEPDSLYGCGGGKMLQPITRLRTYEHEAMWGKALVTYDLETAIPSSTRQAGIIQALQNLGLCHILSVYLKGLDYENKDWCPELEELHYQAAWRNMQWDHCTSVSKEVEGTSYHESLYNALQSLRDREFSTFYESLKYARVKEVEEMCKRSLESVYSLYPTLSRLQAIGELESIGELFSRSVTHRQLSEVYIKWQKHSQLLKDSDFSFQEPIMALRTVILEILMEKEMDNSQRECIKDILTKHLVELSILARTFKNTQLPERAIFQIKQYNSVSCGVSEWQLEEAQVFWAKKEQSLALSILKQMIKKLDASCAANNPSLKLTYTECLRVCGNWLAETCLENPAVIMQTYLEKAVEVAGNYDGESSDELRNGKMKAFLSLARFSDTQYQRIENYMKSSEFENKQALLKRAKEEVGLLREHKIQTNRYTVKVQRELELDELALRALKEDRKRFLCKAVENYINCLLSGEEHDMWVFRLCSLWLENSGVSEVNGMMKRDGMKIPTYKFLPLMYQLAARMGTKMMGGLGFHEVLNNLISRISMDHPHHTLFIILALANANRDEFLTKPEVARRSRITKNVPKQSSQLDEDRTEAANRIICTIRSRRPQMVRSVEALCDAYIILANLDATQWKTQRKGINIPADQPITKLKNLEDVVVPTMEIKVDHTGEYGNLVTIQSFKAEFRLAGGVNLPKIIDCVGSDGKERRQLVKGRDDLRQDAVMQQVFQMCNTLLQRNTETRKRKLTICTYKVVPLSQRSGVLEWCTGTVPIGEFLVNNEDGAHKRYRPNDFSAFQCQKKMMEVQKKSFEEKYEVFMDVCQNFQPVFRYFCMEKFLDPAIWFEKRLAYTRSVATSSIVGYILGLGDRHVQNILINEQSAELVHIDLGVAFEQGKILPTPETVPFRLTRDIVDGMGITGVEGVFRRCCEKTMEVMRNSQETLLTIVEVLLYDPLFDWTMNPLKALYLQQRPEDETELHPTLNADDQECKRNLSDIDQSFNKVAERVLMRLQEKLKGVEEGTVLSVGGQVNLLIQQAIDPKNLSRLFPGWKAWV

[5] = system: human recombinant MEK1, MKK4, IKKα, PKCα, Src, Syc and PDGFα; conditions: at concentrations less than 30 μM; cited from earlier work
Mv1Lu cells = conditions: read-out: IC50, TGFβ-induced AP-1 activation; cited from earlier work
[6] = cited from earlier work
human CD34+ HSPCs [7] = test: HDR gene editing efficiency in HSPCs (ddPCR, GFP flow cytometry); type: cell-based
JNK1, 2 and 3 = conditions: cited from earlier work
JNK and JIP = conditions: read-out: IC50, protein-protein interaction between JNK and JIP; cited from earlier work
c-Jun phosphorylation = conditions: cited from earlier work
PIM1 = PIM1 (Homo sapiens, UniProt P11309); conditions: cited from earlier work
Chain of PIM1 (P11309 whole entry, species assumed): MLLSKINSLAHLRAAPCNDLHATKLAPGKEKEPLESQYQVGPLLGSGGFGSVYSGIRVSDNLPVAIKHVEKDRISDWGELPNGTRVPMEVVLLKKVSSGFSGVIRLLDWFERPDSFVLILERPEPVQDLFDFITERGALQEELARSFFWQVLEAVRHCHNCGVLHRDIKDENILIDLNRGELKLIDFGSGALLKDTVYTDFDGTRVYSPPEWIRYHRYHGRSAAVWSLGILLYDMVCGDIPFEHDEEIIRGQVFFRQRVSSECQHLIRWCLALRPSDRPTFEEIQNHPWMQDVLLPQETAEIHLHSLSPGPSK

[8] = molecular target: extracellular-signal-regulated kinase 8 (ERK8) (Homo sapiens, UniProt Q8TD08); conditions: cited from earlier work
Chain of extracellular-signal-regulated kinase 8 (ERK8) (Q8TD08 whole entry, species assumed): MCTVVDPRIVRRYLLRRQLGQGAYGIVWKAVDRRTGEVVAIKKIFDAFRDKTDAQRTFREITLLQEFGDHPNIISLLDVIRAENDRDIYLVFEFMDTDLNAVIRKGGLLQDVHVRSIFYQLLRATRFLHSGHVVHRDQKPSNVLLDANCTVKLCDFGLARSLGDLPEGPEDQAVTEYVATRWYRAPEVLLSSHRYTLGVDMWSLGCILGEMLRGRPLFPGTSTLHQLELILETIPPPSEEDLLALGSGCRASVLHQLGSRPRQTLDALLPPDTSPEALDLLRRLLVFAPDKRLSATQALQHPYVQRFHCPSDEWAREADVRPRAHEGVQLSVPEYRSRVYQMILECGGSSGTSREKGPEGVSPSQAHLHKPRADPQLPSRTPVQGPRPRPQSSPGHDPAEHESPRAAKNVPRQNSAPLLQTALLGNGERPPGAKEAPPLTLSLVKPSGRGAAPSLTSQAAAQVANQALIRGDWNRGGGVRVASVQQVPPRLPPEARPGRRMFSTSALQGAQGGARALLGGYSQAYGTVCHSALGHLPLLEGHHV

casein kinase 2 (CK2) = casein kinase 2 (CK2) (Homo sapiens, UniProt P68400); conditions: cited from earlier work
Chain of casein kinase 2 (CK2) (P68400 whole entry): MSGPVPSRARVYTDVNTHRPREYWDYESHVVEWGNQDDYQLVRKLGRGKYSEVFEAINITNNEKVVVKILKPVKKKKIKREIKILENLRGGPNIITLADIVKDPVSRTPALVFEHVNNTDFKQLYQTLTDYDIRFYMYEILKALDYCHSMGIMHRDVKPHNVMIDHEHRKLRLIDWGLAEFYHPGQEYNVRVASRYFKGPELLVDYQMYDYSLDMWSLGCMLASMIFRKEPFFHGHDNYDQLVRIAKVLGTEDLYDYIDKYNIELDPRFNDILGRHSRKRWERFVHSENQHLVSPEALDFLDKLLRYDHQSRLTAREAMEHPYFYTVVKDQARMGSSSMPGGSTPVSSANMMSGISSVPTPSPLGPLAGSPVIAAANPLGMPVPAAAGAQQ

DYRK1a = DYRK1a (Homo sapiens, UniProt Q13627); conditions: cited from earlier work
HIPK2 = HIPK2 (Homo sapiens, UniProt Q9H2X6); conditions: cited from earlier work
BRD4 = BRD4 (Homo sapiens, UniProt O60885); conditions: cited from earlier work
IL1A, IL8, IL6, CCL2 = test: Inflammatory cytokine expression in edited HSPCs (qPCR); type: cell-based, human; conditions: CB HSPCs, HS/AAV6; inhibitor at time of GE vs standard protocol
edited human CD34+ HSPCs = test: CD34+ HSPC xenotransplantation in NSG mice; type: in vivo; conditions: inhibitor at time of ex vivo GE (GSE56: limiting cell doses)
IL8, CXCL10, p21, p16 = test: Gene expression in BM-derived HSPCs (qPCR); type: cell-based, human; conditions: 18 weeks post transplantation, HS/AAV6 ± GSE56
Description: For gene expression analyses, total RNA was extracted using either miRNeasy Micro Kit (QIAGEN) according to the manufacturer's instructions and DNase treatment was performed using RNase-free DNase Set (QIAGEN). cDNA was synthetized with iScript cDNA Synthesis Kit (Bio-Rad). cDNA was then pre-amplified using TaqMan PreAmp Master Mix (ThermoFisher) and used for q-PCR in a Viia7 Real-time PCR thermal cycler using both Fast SYBR Green Master Mix (Thermofisher), after standard curve method optimization to reach the 100% primer efficiency for each couple of primers listed in 1. The relative expression of each target gene was first normalized to GUSB housekeeping genes expression and then represented as 2^-DCt for each sample or as fold changes (2^-DDCt) relative to the indicated control conditions.

human CD34+ HSPCs [9] = test: Colony-forming unit cell (CFU-C) assay; type: cell-based; conditions: CB HSPCs, HS/AAV6; inhibitor at time of GE vs standard protocol; 24 h and 96 h post GE
[10] = system: BM-derived human CD34+ cells; test: Senescence markers (p16, SA-β-Gal) in BM-derived cells of the human graft; type: in vivo, NSG mice; conditions: NSG mice, endpoint 15-18 weeks; inhibitor at time of ex vivo GE
[11] = system: BM-derived human CD34+ cells; test: CFU-C assay of CD34+ cells retrieved from bone marrow of primary recipients; type: cell-based; conditions: 15-18 weeks, inhibitor at time of ex vivo GE vs standard protocol

For `Cn1c(=O)n(-c2ccc(C(C)(C)C#N)cc2)c2c3cc(-c4cnc5ccccc5c4)ccc3ncc21` [BEZ235], the IC50 (ATR [1]) is given as roughly 21 nM.

For `Cl.Cl.c1cc(OCCN2CCCCC2)cc(-c2n[nH]c3ccc(-c4ncn[nH]4)cc23)c1` [CC 401 dihydrochloride, 3-[3-[2-(1-Piperidinyl)ethoxy]phenyl]-5-(1H-1,2,4-triazol-5-yl)-1H-indazole dihydrochloride], the Ki (JNK [2]) is given as 25 to 50 nM and the “selectivity for JNK over p38, ERK, IKK2, protein kinase C, Lck and ZAP70” value (JNK [3]) is given as greater than 40 fold.

For `O=C(NC(NC(=S)Nc1ccc(F)c([N+](=O)[O-])c1)C(Cl)(Cl)Cl)C(c1ccccc1)c1ccccc1` (centres unmarked) [CGK 733], the IC50 (ATR [4]) is given as roughly 200 nM and the IC50 (ATM kinase) is given as roughly 200 nM.

In the case of `Nc1n[nH]c2nnc(-c3c(-c4ccccc4)nn4ccccc34)cc12` [FR180204, 5-(2-Phenyl-pyrazolo[1,5-a]pyridin-3-yl)-1H-pyrazolo[3,4-c]pyridazin-3-ylamine], the “activity against MEK1, MKK4, IKKα, PKCα, Src, Syc and PDGFα” value [5] is listed as “no activity” and the IC50 (Mv1Lu cells) is listed as 3100 nM.

For `O=c1cc(-c2cccc3c2Sc2ccccc2S3)oc(N2CCOCC2)c1` [KU-55933], the solubility [6] is listed as “soluble in DMSO and ethanol”.

For `C[S+]([O-])c1ccc(-c2nc(-c3ccncc3)c(-c3ccc(F)cc3)[nH]2)cc1` (centres unmarked) [SB 203580 hydrochloride], the solubility [6] is listed as “water-soluble”.

For `O=C1c2ccccc2-c2n[nH]c3cccc1c23` [SP600125, Anthra[1-9-cd]pyrazol-6(2H)-one], the “GFP levels in HSPC subpopulations (GE efficiency)” value (human CD34+ HSPCs [7]; CB HSPCs, Erk (4 μM) or Jnk (2 μM) inhibitor day 1 and 2 vs DMSO, 96 h post-editing) is listed as “increase in GFP levels”, the “Percentage of more primitive edited cells” value (human CD34+ HSPCs [7]; Jnk inhibitor 2 μM day 1 and 2) is listed as “higher percentage of more primitive edited cells” and the IC50 (JNK1, 2 and 3) is listed as 40 to 90 nM.

In the case of `Nc1nnc(Sc2ncc([N+](=O)[O-])s2)s1` [SU 3327, 5-[(5-Nitro-2-thiazolyl)thio]-1,3,4thiadiazol-2-amine], the IC50 (JNK and JIP) is listed as 239 nM and the IC50 (JNK [2]) is listed as 700 nM.

For `CCOc1nc(NC(=O)Cc2cc(OC)ccc2OC)cc(N)c1C#N` [TCS JNK 6o, N-(4-Amino-5-cyano-6-ethoxy-2-pyridinyl)-2,5-dimethoxybenzeneacetamide], the EC50 (c-Jun phosphorylation) is listed as 920 nM.

In the case of `CN(C)c1nc2c(Br)c(Br)c(Br)c(Br)c2n1CC(=O)O` [TMCB, 2-(4,5,6,7-Tetrabromo-2-(dimethylamino)-1H-benzo[d]imidazol-1-yl)acetic acid], the Ki (PIM1) is given as 8650 nM, the IC50 [8] is given as 500 nM and the IC50 (casein kinase 2 (CK2)) is given as 500 nM. The Ki (casein kinase 2 (CK2)) was 250 nM, the Ki (DYRK1a) was 11900 nM and the Ki (HIPK2) was 15200 nM.

In the case of `CCOc1cc(N2CCC(O)CC2)ccc1Nc1ncc2c(n1)N(C)c1ccccc1C(=O)N2C` [XMD 8-92, 2-[[2-Ethoxy-4-(4-hydroxy-1-piperidinyl)phenyl]amino]-5,11-dihydro-5,11-dimethyl-6H-pyrimido[4,5-b][1,4]benzodiazepin-6-one], the Kd (BRD4) is listed as 190 nM.

B1: GSE56: mRNA encoding for a dominant negative p53 truncated form (GSE56), co-electroporated; SEQ ID No. 8 and 9 (nucleic acid)
sense: ATGGATGGATGGTGTCCTGGGAGAGACCGTCGGACAGAGGAAGAAAATTTCCGCAAAAAAGAAGAGCATTGCCCGGAGCTGCCCCCAGGGAGTGCAAAGAGAGCACTGCCCACCAGCACAAGCTCCTCTCCCCAGCAAAAGAAAAAACCACTCGATGGAGAATATTTCACCCTTAAGATCCGTGGGCGTGAGCGCTTCGAGATGTTCCGAGAGCTGAATGAGGCCTTGGAATTAAAGGATGCCCGTGCTGCCGAGGAGTCAGGAGACAGCAGGGCTCACTCCAGCTACCCGAAGATAGTTAGTTAG
In the case of B1, the “Percentage of HDR-edited alleles (ddPCR)” value (human CD34+ HSPCs [7]; CB HSPCs, AAVS1 editing (HS/AAV6), inhibitor at time of GE (Anakinra 50 ng/μl, SC514 25 μM, GSE56 mRNA, ATMi) vs standard protocol) is reported as “tended to increase the percentage of HDR editing”, the “Relative expression of inflammatory cytokine genes (IL1A, IL8, IL6, CCL2)” value (IL1A, IL8, IL6, CCL2) is reported as “downregulation of the cytokines” and the “Human CD45+ engraftment in peripheral blood vs standard protocol” value (edited human CD34+ HSPCs) is reported as “fourfold higher engraftment than the standard protocol”. For the same molecule, the “mRNA levels of p21, p16 and IL8 in BM-derived HSPCs” value (IL8, CXCL10, p21, p16) was “mitigated by the administration of GSE56”, the “Number of colonies (HSPC clonogenic potential)” value (human CD34+ HSPCs [9]) was “similarly increased” and the “Percentage of senescent cells (p16, SA-β-Gal) in BM-derived CD34+ / HDR-edited cells of the human graft” value [10] was “prevented the accumulation of the senescence marker SA-β-gal; also recorded: this reduction was observed also upon p53 inhibition”. The “Number of colonies formed by BM-derived CD34+ cells” value [11] was “improvement of HSPC clonogenic potential upon p53 inhibition; also recorded: became higher upon p53 inhibition”.

Source: patent US20240408145A1, “Gene Therapy” (Ospedale San Raffaele S.r.l., priority 2021, published 2024)
